In the CheMixHub viscosity set:
± gives the uncertainty stated by the source.

Assay: xn = mol fraction of the nth substance listed

ClC(Cl)(Cl)Cl + c1ccccc1
Details	viscosity [mPa·s]
293.25 K, 101 kPa, x1 = 0.4	0.8063 ± 0.021
293.25 K, 101 kPa, x1 = 0.5	0.8381 ± 0.022
293.25 K, 101 kPa, x1 = 0.8	0.943 ± 0.025
293.35 K, 101 kPa, x1 = 0.2	0.7416 ± 0.02
298 K, 101 kPa, x1 = 0.1367	0.64 ± 0.018
298 K, 101 kPa, x1 = 0.1809	0.653 ± 0.018
298 K, 101 kPa, x1 = 0.2176	0.664 ± 0.018
298 K, 101 kPa, x1 = 0.2521	0.672 ± 0.018
298 K, 101 kPa, x1 = 0.2882	0.68 ± 0.018
298 K, 101 kPa, x1 = 0.3188	0.688 ± 0.018
298 K, 101 kPa, x1 = 0.3463	0.697 ± 0.018
298 K, 101 kPa, x2 = 0.189	0.8814 ± 0.012
298 K, 101 kPa, x2 = 0.2701	0.8626 ± 0.012
298 K, 101 kPa, x2 = 0.344	0.845 ± 0.011
298 K, 101 kPa, x2 = 0.4734	0.8084 ± 0.011
298 K, 101 kPa, x2 = 0.583	0.7751 ± 0.011
298 K, 101 kPa, x2 = 0.6318	0.7601 ± 0.01
298 K, 101 kPa, x2 = 0.6771	0.7455 ± 0.01
298 K, 101 kPa, x2 = 0.7194	0.7309 ± 0.01
298 K, 101 kPa, x2 = 0.7588	0.7176 ± 0.01
298 K, 101 kPa, x2 = 0.8303	0.6917 ± 0.0097
298 K, 101 kPa, x2 = 0.8935	0.667 ± 0.0094
298 K, 101 kPa, x2 = 0.9224	0.6567 ± 0.0092
298 K, 101 kPa, x2 = 0.9497	0.6424 ± 0.0091
298 K, 101.3 kPa, x1 = 0.1472	0.655 ± 0.007
298 K, 101.3 kPa, x1 = 0.2844	0.69 ± 0.007
298 K, 101.3 kPa, x1 = 0.4778	0.744 ± 0.007
298 K, 101.3 kPa, x1 = 0.6302	0.79 ± 0.008
298 K, 101.3 kPa, x1 = 0.8302	0.842 ± 0.008
298.15 K, 101 kPa, x1 = 0.0951	0.6268 ± 0.0054
298.15 K, 101 kPa, x1 = 0.169	0.6474 ± 0.0056
298.15 K, 101 kPa, x1 = 0.2348	0.6652 ± 0.017
298.15 K, 101 kPa, x1 = 0.2559	0.6726 ± 0.0058
298.15 K, 101 kPa, x1 = 0.3734	0.7073 ± 0.0061
298.15 K, 101 kPa, x1 = 0.4835	0.7352 ± 0.019
298.15 K, 101 kPa, x1 = 0.4917	0.7429 ± 0.0063
298.15 K, 101 kPa, x1 = 0.5951	0.7742 ± 0.0066
298.15 K, 101 kPa, x1 = 0.6135	0.7803 ± 0.0066
298.15 K, 101 kPa, x1 = 0.7561	0.8236 ± 0.007
298.15 K, 101 kPa, x1 = 0.7767	0.8291 ± 0.021
298.15 K, 101 kPa, x1 = 0.9264	0.8783 ± 0.0074
298.15 K, 101 kPa, x2 = 0.1022	0.8965 ± 0.0088
298.15 K, 101 kPa, x2 = 0.2	0.832 ± 0.0083
298.15 K, 101 kPa, x2 = 0.2062	0.8621 ± 0.0086
298.15 K, 101 kPa, x2 = 0.2386	0.808 ± 0.01
298.15 K, 101 kPa, x2 = 0.3055	0.8356 ± 0.0084
298.15 K, 101 kPa, x2 = 0.4	0.773 ± 0.0078
298.15 K, 101 kPa, x2 = 0.4022	0.8053 ± 0.0082
298.15 K, 101 kPa, x2 = 0.5051	0.7709 ± 0.008
298.15 K, 101 kPa, x2 = 0.5755	0.706 ± 0.009
298.15 K, 101 kPa, x2 = 0.6	0.714 ± 0.0072
298.15 K, 101 kPa, x2 = 0.604	0.7357 ± 0.0078
298.15 K, 101 kPa, x2 = 0.7006	0.7062 ± 0.0076
298.15 K, 101 kPa, x2 = 0.736	0.66 ± 0.009
298.15 K, 101 kPa, x2 = 0.8	0.658 ± 0.0067
298.15 K, 101 kPa, x2 = 0.8004	0.6785 ± 0.0075
298.15 K, 101 kPa, x2 = 0.8991	0.6415 ± 0.0073
298.15 K, 101.33 kPa, x1 = 0.125	0.6346 ± 0.017
298.15 K, 101.33 kPa, x1 = 0.2348	0.6652 ± 0.017
298.15 K, 101.33 kPa, x1 = 0.4835	0.7352 ± 0.019
298.15 K, 101.33 kPa, x1 = 0.5	0.7404 ± 0.019
298.15 K, 101.33 kPa, x1 = 0.65	0.7872 ± 0.021
298.15 K, 101.33 kPa, x1 = 0.7767	0.8291 ± 0.022
298.15 K, 101.33 kPa, x1 = 0.9	0.8691 ± 0.023
302.65 K, 101 kPa, x1 = 0.4	0.707 ± 0.019
302.65 K, 101 kPa, x1 = 0.5	0.7278 ± 0.019
303.15 K, 101 kPa, x2 = 0.1022	0.8407 ± 0.0084
303.15 K, 101 kPa, x2 = 0.2062	0.8084 ± 0.0082
303.15 K, 101 kPa, x2 = 0.3055	0.7825 ± 0.0081
303.15 K, 101 kPa, x2 = 0.4022	0.7545 ± 0.0079
303.15 K, 101 kPa, x2 = 0.5051	0.7209 ± 0.0077
303.15 K, 101 kPa, x2 = 0.604	0.688 ± 0.0076
303.15 K, 101 kPa, x2 = 0.7006	0.6616 ± 0.0074
303.15 K, 101 kPa, x2 = 0.8004	0.6348 ± 0.0073
303.15 K, 101 kPa, x2 = 0.8991	0.6047 ± 0.0071
303.25 K, 101 kPa, x1 = 0.8	0.8132 ± 0.022
303.35 K, 101 kPa, x1 = 0.6	0.7543 ± 0.02
303.65 K, 101 kPa, x1 = 0.2	0.6404 ± 0.017
308 K, 101 kPa, x2 = 0.189	0.7518 ± 0.01
308 K, 101 kPa, x2 = 0.2701	0.7355 ± 0.01
308 K, 101 kPa, x2 = 0.344	0.7202 ± 0.01
308 K, 101 kPa, x2 = 0.4734	0.6919 ± 0.0097
308 K, 101 kPa, x2 = 0.583	0.6652 ± 0.0094
308 K, 101 kPa, x2 = 0.6318	0.6524 ± 0.0092
308 K, 101 kPa, x2 = 0.6771	0.6391 ± 0.009
308 K, 101 kPa, x2 = 0.7194	0.627 ± 0.0089
308 K, 101 kPa, x2 = 0.7588	0.6159 ± 0.0088
308 K, 101 kPa, x2 = 0.8303	0.5939 ± 0.0085
308 K, 101 kPa, x2 = 0.8935	0.5753 ± 0.0083
308 K, 101 kPa, x2 = 0.9224	0.5661 ± 0.0082
308 K, 101 kPa, x2 = 0.9497	0.5573 ± 0.0081
308.15 K, 101 kPa, x2 = 0.1022	0.7881 ± 0.0081
308.15 K, 101 kPa, x2 = 0.2062	0.758 ± 0.0079
308.15 K, 101 kPa, x2 = 0.3055	0.732 ± 0.0078
308.15 K, 101 kPa, x2 = 0.4022	0.7062 ± 0.0077
308.15 K, 101 kPa, x2 = 0.5051	0.6748 ± 0.0075
308.15 K, 101 kPa, x2 = 0.604	0.6434 ± 0.0073
308.15 K, 101 kPa, x2 = 0.7006	0.62 ± 0.0072
308.15 K, 101 kPa, x2 = 0.8004	0.5929 ± 0.007
308.15 K, 101 kPa, x2 = 0.8991	0.5655 ± 0.0069
312.15 K, 101 kPa, x1 = 0.5	0.6431 ± 0.017
312.35 K, 101 kPa, x1 = 0.4	0.6172 ± 0.016
312.35 K, 101 kPa, x1 = 0.6	0.6695 ± 0.018
312.35 K, 101 kPa, x1 = 0.8	0.7173 ± 0.019
312.65 K, 101 kPa, x1 = 0.2	0.5692 ± 0.015
313.15 K, 101 kPa, x2 = 0.1022	0.7415 ± 0.0078
313.15 K, 101 kPa, x2 = 0.2062	0.7096 ± 0.0077
313.15 K, 101 kPa, x2 = 0.3055	0.6862 ± 0.0076
313.15 K, 101 kPa, x2 = 0.4022	0.659 ± 0.0074
313.15 K, 101 kPa, x2 = 0.5051	0.6313 ± 0.0073
313.15 K, 101 kPa, x2 = 0.604	0.6024 ± 0.0071
313.15 K, 101 kPa, x2 = 0.7006	0.58 ± 0.007
313.15 K, 101 kPa, x2 = 0.8004	0.5544 ± 0.0068
313.15 K, 101 kPa, x2 = 0.8991	0.5291 ± 0.0067
318 K, 101 kPa, x2 = 0.189	0.6483 ± 0.0092
318 K, 101 kPa, x2 = 0.2701	0.6346 ± 0.009
318 K, 101 kPa, x2 = 0.344	0.6217 ± 0.0088
318 K, 101 kPa, x2 = 0.4734	0.599 ± 0.0086
318 K, 101 kPa, x2 = 0.583	0.5775 ± 0.0083
318 K, 101 kPa, x2 = 0.6318	0.5665 ± 0.0082
318 K, 101 kPa, x2 = 0.6771	0.5566 ± 0.0081
318 K, 101 kPa, x2 = 0.7194	0.5469 ± 0.008
318 K, 101 kPa, x2 = 0.7588	0.5373 ± 0.0078
318 K, 101 kPa, x2 = 0.8303	0.5209 ± 0.0076
318 K, 101 kPa, x2 = 0.8935	0.5053 ± 0.0075
318 K, 101 kPa, x2 = 0.9224	0.4992 ± 0.0074
318 K, 101 kPa, x2 = 0.9497	0.492 ± 0.0073
318 K, 101.3 kPa, x1 = 0.1399	0.5125 ± 0.02
318 K, 101.3 kPa, x1 = 0.2838	0.5478 ± 0.021
318 K, 101.3 kPa, x1 = 0.4793	0.6011 ± 0.023
318 K, 101.3 kPa, x1 = 0.6289	0.6411 ± 0.024
318 K, 101.3 kPa, x1 = 0.8405	0.6993 ± 0.026
322.25 K, 101 kPa, x1 = 0.2	0.5085 ± 0.014
